Reference: patent publication US7259153B2, “Drug formulation and delivery using crystalline methylated cyclodextrins” (Supernus Pharmaceuticals, priority 2003, dated 2007)
Values after ≈ are worked out from the molar mass of the structure shown. Read-outs that look alike come from different tables or passages of the source.

Assay: Equilibrium solubility of drug substance in media with solubilizer (excess drug, rotated 48 hours at room temperature, filtered, HPLC)
Type: physicochemical
Conditions: for solubility enhancement ratio: vs vehicle alone; for solubility at 48 h: thermodynamic from solid
Description: An excess of drug substance was added to 20 ml glass liquid scintillation vials (Kimble Glass Inc., Vineland, N.J.) containing 10 ml of the media with a specific amount of solubilizer. […] The samples were filtered through a 0.45 μm filter (Acrodisc CR PTFE membrane filter, Gelman Sciences, Ann Arbor, Mich.). After discarding the first mL of the filtrates to eliminate any membrane adsorptive effect, the filtrates were collected for high-performance liquid chromatography (HPLC) analysis for drug concentration.

NC(=O)N1c2ccccc2C=Cc2ccccc21 [Carbamazepine]
solubility enhancement ratio (1% (w/v) β-Cyclodextrin, aqueous): 5.9
solubility at 48 h (1% (w/v) β-cyclodextrin in water, aqueous with cosolvent or surfactant or cyclodextrin, 1% (w/v) β-Cyclodextrin, aqueous, read-out: Carbamazepine Solubility): 669 µg/mL (≈ 2.83 mM)
solubility at 48 h (2% (w/v) Cavasol W7M in water, aqueous with cosolvent or surfactant or cyclodextrin, 2% (w/v) Cavasol W7M, aqueous, read-out: Carbamazepine Solubility): 1070 µg/mL (≈ 4.52 mM)
solubility enhancement ratio (2% (w/v) Cavasol W7M, aqueous): 9.5
solubility enhancement ratio (2% (w/v) Cryst. Methylated β-CD, aqueous): 13.7
solubility at 48 h (2% (w/v) HP-β-cyclodextrin in water, aqueous with cosolvent or surfactant or cyclodextrin, 2% (w/v) HP-β-cyclodextrin, aqueous, read-out: Carbamazepine Solubility): 1240 µg/mL (≈ 5.26 mM)
solubility enhancement ratio (2% (w/v) HP-β-cyclodextrin, aqueous): 11.0
solubility at 48 h (2% (w/v) crystalline methylated β-cyclodextrin in water, aqueous with cosolvent or surfactant or cyclodextrin, 2% (w/v) Cryst. Methylated β-CD, aqueous, read-out: Carbamazepine Solubility): 1540 µg/mL (≈ 6.53 mM)
solubility enhancement ratio (2% (w/v) β-Cyclodextrin, aqueous): 10.5
solubility at 48 h (2% (w/v) β-cyclodextrin in water, aqueous with cosolvent or surfactant or cyclodextrin, 2% (w/v) β-Cyclodextrin, aqueous, read-out: Carbamazepine Solubility): 1190 µg/mL (≈ 5.02 mM)
solubility at 48 h (5% (w/v) Cavasol W7M in water, aqueous with cosolvent or surfactant or cyclodextrin, 5% (w/v) Cavasol W7M, aqueous, read-out: Carbamazepine Solubility): 2580 µg/mL (≈ 10.9 mM)
solubility enhancement ratio (5% (w/v) Cavasol W7M, aqueous): 22.8
solubility enhancement ratio (5% (w/v) Cryst. Methylated β-CD, aqueous): 31.8
solubility at 48 h (5% (w/v) HP-β-cyclodextrin in water, aqueous with cosolvent or surfactant or cyclodextrin, 5% (w/v) HP-β-cyclodextrin, aqueous, read-out: Carbamazepine Solubility): 2880 µg/mL (≈ 12.2 mM)
solubility enhancement ratio (5% (w/v) HP-β-cyclodextrin, aqueous): 25.4
solubility at 48 h (5% (w/v) crystalline methylated β-cyclodextrin in water, aqueous with cosolvent or surfactant or cyclodextrin, 5% (w/v) Cryst. Methylated β-CD, aqueous, read-out: Carbamazepine Solubility): 3590 µg/mL (≈ 15.2 mM)
solubility at 48 h (7.5% (w/v) Cavasol W7M in water, aqueous with cosolvent or surfactant or cyclodextrin, 7.5% (w/v) Cavasol W7M, aqueous, read-out: Carbamazepine Solubility): 3760 µg/mL (≈ 15.9 mM)
solubility enhancement ratio (7.5% (w/v) Cavasol W7M, aqueous): 33.3
solubility enhancement ratio (7.5% (w/v) Cryst. Methylated β-CD, aqueous): 47.5
solubility at 48 h (7.5% (w/v) HP-β-cyclodextrin in water, aqueous with cosolvent or surfactant or cyclodextrin, 7.5% (w/v) HP-β-cyclodextrin, aqueous, read-out: Carbamazepine Solubility): 4870 µg/mL (≈ 20.6 mM)
solubility enhancement ratio (7.5% (w/v) HP-β-cyclodextrin, aqueous): 43.1
solubility at 48 h (7.5% (w/v) crystalline methylated β-cyclodextrin in water, aqueous with cosolvent or surfactant or cyclodextrin, 7.5% (w/v) Cryst. Methylated β-CD, aqueous, read-out: Carbamazepine Solubility): 5370 µg/mL (≈ 22.7 mM)
solubility at 48 h (10% (w/v) Cavasol W7M in water, aqueous with cosolvent or surfactant or cyclodextrin, 10% (w/v) Cavasol W7M, aqueous, read-out: Carbamazepine Solubility): 5250 µg/mL (≈ 22.2 mM)
solubility enhancement ratio (10% (w/v) Cavasol W7M, aqueous): 46.4
solubility enhancement ratio (10% (w/v) Cryst. Methylated β-CD, aqueous): 61.6
solubility at 48 h (10% (w/v) HP-β-cyclodextrin in water, aqueous with cosolvent or surfactant or cyclodextrin, 10% (w/v) HP-β-cyclodextrin, aqueous, read-out: Carbamazepine Solubility): 6020 µg/mL (≈ 25.5 mM)
solubility enhancement ratio (10% (w/v) HP-β-cyclodextrin, aqueous): 53.3
solubility at 48 h (10% (w/v) crystalline methylated β-cyclodextrin in water, aqueous with cosolvent or surfactant or cyclodextrin, 10% (w/v) Cryst. Methylated β-CD, aqueous, read-out: Carbamazepine Solubility): 6960 µg/mL (≈ 29.5 mM)
solubility at 48 h (20% (w/v) Cavasol W7M in water, aqueous with cosolvent or surfactant or cyclodextrin, 20% (w/v) Cavasol W7M, aqueous, read-out: Carbamazepine Solubility): 10900 µg/mL (≈ 46.2 mM)
solubility enhancement ratio (20% (w/v) Cavasol W7M, aqueous): 96.5
solubility enhancement ratio (20% (w/v) Cryst. Methylated β-CD, aqueous): 132.4
solubility at 48 h (20% (w/v) HP-β-cyclodextrin in water, aqueous with cosolvent or surfactant or cyclodextrin, 20% (w/v) HP-β-cyclodextrin, aqueous, read-out: Carbamazepine Solubility): 10700 µg/mL (≈ 45.3 mM)
solubility enhancement ratio (20% (w/v) HP-β-cyclodextrin, aqueous): 94.8
solubility at 48 h (20% (w/v) crystalline methylated β-cyclodextrin in water, aqueous with cosolvent or surfactant or cyclodextrin, 20% (w/v) Cryst. Methylated β-CD, aqueous (heating to dissolve CD), read-out: Carbamazepine Solubility): 15000 µg/mL (≈ 63.3 mM)
solubility at 48 h (PEG 400, organic solvent or mixture, vehicle: PEG 400, read-out: Carbamezepine Solubility): 77900 µg/mL (≈ 330 mM)
solubility at 48 h (Transcutol, organic solvent or mixture, vehicle: Transcutol, read-out: Carbamezepine Solubility): 78100 µg/mL (≈ 331 mM)
carbamazepine solubility in propylene glycol relative to aqueous solubility (propylene glycol vs water): about 310 fold
solubility at 48 h (propylene glycol, organic solvent or mixture, vehicle: Propylene Glycol, read-out: Carbamezepine Solubility): 35300 µg/mL (≈ 150 mM)
Carbamazepine Solubility (water, 0% (w/v) cyclodextrin): 113 µg/mL
